Assay [1] concerns the target T1, EAAT5 (JumpIn-EAAT5 cells) (Homo sapiens, UniProt O00341).
T1 construct: expressed in transfected cells; host or cells: Jump In T-REx HEK 293
The experiment in a line: Impedance-based phenotypic assay on JumpIn-EAAT5 cells. In kind it is cell-based. Particulars: JumpIn-EAAT5, 1 mM L-glu, p = 0.0032. How it is done: Label-free whole-cell assays, based on cell-induced changes in impedance, were performed using the xCELLigence real-time cell analyzer (RTCA) system (ACEA Biosciences, San Diego, CA, United States) as described previously ([Vlachodimou et al., 2019]; [Sijben et al., 2021a], [2021b]). In short, cells are cultured in medium on gold-plated electrodes in microwell E-plates. Per well impedance is continuously measured at 10 kHz and is converted to the unitless parameter Cell Index (CI) by the following formula: CI=(Zi−Z0)Ω/15Ω where Zi is the impedance at any given time point and Z0 is the baseline impedance measured at the start of each experiment ([Kho et al., 2015]).
Assays were performed at 37°C and 5% CO2 in 96-well PET E-plates in a total volume of 100 µl per well. Prior to cell seeding, the baseline impedance (Z0) was measured in the recording station in 40 µl (two compound additions) or 45 µl (one compound addition) medium in the presence (+) or absence (−) of 1 μg/ml dox. […]
On the day of the experiment, JumpIn-EAAT cells grown to 70–80% confluence were trypsinized (0.25% trypsin in PBS/EDTA), counted and seeded in the E-plate in a volume of 50 μl at 60,000 cells/well. […] Cell growth was recorded overnight for 22 h. […] After stimulation the impedance was measured for at least 2 h. […]
Experimental data was recorded using RTCA Software v2.0 or v2.1.1 (ACEA Biosciences). […]

For another assay, the system named is JumpIn-EAAT1 cells. In words: Targeted metabolomics (LC-MS/MS) of intracellular metabolite levels. The class given is cell-based, human. The conditions noted are these: 1 mM substrate, 2 h. How it is done:
JumpIn-EAAT1 cells were plated at 150,000 cells/well in 24 well poly-L-lysine coated plates in culture medium in the absence (−dox) or presence (+dox) of 1 μg/ml doxycycline and grown at 37°C and 5% CO2. After 24 h, the medium was refreshed and cells were pretreated with vehicle (PBS/DMSO) or 10 µM TFB-TBOA. […] For lysis, cells were first gently washed with room temperature bicarbonate buffer (91 mM NH4HCO3, pH 7.4). […] The cells were then scraped and transferred to a pre-cooled Eppendorf tube and immediately snap frozen in liquid nitrogen. Samples were thawed on ice before being centrifuged at 16,000 × g for 10 min at 4°C. The clarified metabolite-containing supernatants were moved into a high-performance liquid chromatography vial and stored at −80°C until LC-MS/MS analysis.
Cell extracts were dried using a nitrogen evaporator. The dry residue was reconstituted in 16 µl H2O and 4 µl of sample extract was used for LC-MS/MS analysis. […] The column was maintained at a temperature of 40°C and 4 µl of sample was injected per run. The mobile phase A was 3% MeOH (v/v), 10 mM tributylamine, 15 mM acetic acid in H2O, and mobile phase B was 10 mM tributylamine, 15 mM acetic acid in MeOH. The gradient elution with a flow rate 0.25 mL/min was performed for a total time of 24 min. […] The metabolites of interest were detected using a dynamic Multiple Reaction Monitoring (MRM) mode. The MassHunter 10.0 software (Agilent Technologies) was used for the data processing. Ten-point linear calibration curves with internal standardization were constructed for the quantification of metabolites.
Volcano plots were generated to visualize the significant up- or downregulation of intracellular metabolite concentrations. The log2 fold change upon substrate addition is plotted against the −log10 adjusted p-value.

SMILES strings stand for the structures. Entries after “also recorded” stand apart in the source; their conditions may differ. Counter-ions that a name gives are not always drawn.

Experimental findings from PMC9169222, “Impedance-Based Phenotypic Readout of Transporter Function: A Case for Glutamate Transporters” (Frontiers in Pharmacology, 2022) are described below.

T1 sequence (O00341 whole entry): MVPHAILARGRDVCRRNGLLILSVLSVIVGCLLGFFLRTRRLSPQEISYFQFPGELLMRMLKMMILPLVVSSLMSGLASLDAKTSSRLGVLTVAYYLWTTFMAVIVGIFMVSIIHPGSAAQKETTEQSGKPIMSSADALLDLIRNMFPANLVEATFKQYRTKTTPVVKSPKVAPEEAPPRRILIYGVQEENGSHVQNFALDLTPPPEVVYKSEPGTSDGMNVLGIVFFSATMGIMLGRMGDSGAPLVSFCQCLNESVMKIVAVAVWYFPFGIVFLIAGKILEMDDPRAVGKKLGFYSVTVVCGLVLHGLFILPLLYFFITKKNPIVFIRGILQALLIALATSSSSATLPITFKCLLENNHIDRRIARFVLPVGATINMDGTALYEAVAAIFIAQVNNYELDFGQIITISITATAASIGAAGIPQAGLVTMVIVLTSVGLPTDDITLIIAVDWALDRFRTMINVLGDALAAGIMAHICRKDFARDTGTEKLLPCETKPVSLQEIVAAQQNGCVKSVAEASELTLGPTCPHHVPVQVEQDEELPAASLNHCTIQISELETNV

As to `N[C@@H](CCC(=O)O)C(=O)O` [L-glutamate, L-glutamic acid monosodium salt monohydrate], the “Response in dox-induced vs non-induced cells” value in assay [1] is recorded as “significantly higher”. Besides, in the assay with JumpIn-EAAT1 cells, the “Intracellular cAMP levels” value is “significant elevations”; the Intracellular glutamine level result is “not significantly altered”; the “Levels of TCA cycle intermediates and related metabolites” value is listed as “increased”. In addition, in the assay on JumpIn-EAAT1 cells (+dox), the “Increase of intracellular aspartate” value stood at 5 fold, the “Increase of intracellular glutamate” value was 5 fold and the Intracellular taurine level entry is reported as “significantly reduced; also recorded: significant decrease”.
